Source: US11142515B2, “Pyrazolyl-ureas as kinase inhibitors” (RESPIVERT LIMITED, priority 2014, dated 2021)

Assays:
[1] = system: ICAM-1 expression in BEAS2B cells; experiment: Poly I:C-induced ICAM-1 expression in BEAS2B cells; type: cell-based; details: Homo sapiens, BEAS-2B, read-out: PolyIC/ICAM1 IC50 (BEAS2B)
Method: Poly I:C was used in these studies as a simple, RNA virus mimic. Poly I:C-Oligofectamine mixture (2% Oligofectamine±1 μg/mL Poly I:C, 25 μL; Life Technologies and Invivogen Ltd., San Diego, Calif., respectively) was transfected into BEAS2B cells (human bronchial epithelial cells, ATCC). Cells were pre-incubated with final concentrations of test compounds for 2 h and the level of ICAM-1 expression on the cell surface was determined by cell-based ELISA. At a time point 18 h after poly I:C transfection, cells were fixed with 4% formaldehyde in PBS (100 μL) and then endogenous peroxidase was quenched by the addition of washing buffer (100 μL, 0.05% Tween in PBS: PBS-Tween) containing 0.1% sodium azide and 1% hydrogen peroxide. Cells were washed with wash-buffer (3×200 μL). After blocking the wells with 5% milk in PBS-Tween (100 μL) for 1 h, the cells were incubated with anti-human ICAM-1 antibody (50 μL; Cell Signaling Technology, Danvers, Mass.) in 1% BSA PBS overnight at 4° C.
The cells were washed with PBS-Tween (3×200 μL) and incubated with the secondary antibody (100 μL; HRP-conjugated anti-rabbit IgG, Dako Ltd., Glostrup, Denmark). The cells were then incubated with of substrate (50 μL) for 2-20 min, followed by the addition of stop solution (50 μL, 1N H2SO4). The ICAM-1 signal was detected by reading the absorbance at 450 nm against a reference wavelength of 655 nm using a spectrophotometer. The cells ware then washed with PBS-Tween (3×200 μL) and total cell numbers in each well were determined by reading absorbance at 595 nm after Crystal Violet staining (50 μL of a 2% solution in PBS) and elution by 1% SDS solution (100 μL) in PBS. The measured OD 450-655 readings were corrected for cell number by dividing with the OD595 reading in each well. The inhibition of ICAM-1 expression was calculated at each concentration of test compound by comparison with vehicle control.

[2] = molecular target: T1, p38 MAPKα isoform (MAPK14) (Homo sapiens, UniProt Q16539); experiment: p38 MAPKα enzyme inhibition (Z-LYTE FRET); type: biochemical; details: Table 2A; read-out: IC50 Values for Enzyme Inhibition p38 MAPKα
T1 construct: purchased Life Technologies
T1 sequence (Q16539 whole entry, canonical isoform): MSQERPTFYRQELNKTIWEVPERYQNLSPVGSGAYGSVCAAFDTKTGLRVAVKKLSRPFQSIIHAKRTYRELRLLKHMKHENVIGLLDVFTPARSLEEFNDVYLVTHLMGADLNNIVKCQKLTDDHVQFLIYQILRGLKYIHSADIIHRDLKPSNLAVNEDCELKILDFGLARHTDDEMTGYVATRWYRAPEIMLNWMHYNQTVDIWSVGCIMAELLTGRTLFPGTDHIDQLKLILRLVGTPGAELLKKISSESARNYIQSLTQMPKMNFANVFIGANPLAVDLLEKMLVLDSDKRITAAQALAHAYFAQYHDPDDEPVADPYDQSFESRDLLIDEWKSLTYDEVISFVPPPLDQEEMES
Outline: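 Activity was measured indirectly as phosphorylation of a MAPKAP-K2-derived FRET peptide. Enzyme (added at 40 ng/mL) was preincubated 2 h at RT with compound (added solutions 40–0.0012 μg/mL).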

IC50 [2] [nM]	SMILES	IC50 [1] [nM]
4	Cc1cc(-n2nc(C(C)(C)C)cc2NC(=O)Nc2ccc(OCc3ccnc(Nc4cnccn4)c3)c3ccccc23)cs1 (single isomer, unassigned) [Example 31]	874
9	COCCNC(=O)c1cnc(Nc2cc(COc3ccc(NC(=O)Nc4cc(C(C)(C)C)nn4-c4ccc(C)cc4)c4ccccc34)ccn2)cn1 [Example 3]	460
22	Cc1ccc(-n2nc(C(C)(C)C)cc2NC(=O)Nc2ccc(OCc3ccnc(Nc4cnc(C)c(C)n4)c3)c3ccccc23)cc1 [Example 4, 1-(3-(tert-Butyl)-1-(p-tolyl)-1H-pyrazol-5-yl)-3-(4-((2-((5,6-dimethylpyrazin-2-yl)amino)pyridin-4-yl)methoxy)naphthalen-1-yl)urea]	> 1600
< 0.48	Cc1ccc(-n2nc(C(C)(C)C)cc2NC(=O)Nc2ccc(OCc3ccnc(Nc4cnc(CN)cn4)c3)c3ccccc23)cc1 [Example 5, 1-(4-((2-((5-(Aminomethyl)pyrazin-2-yl)amino)pyridin-4-yl)methoxy)naphthalen-1-yl)-3-(3-(tert-butyl)-1-(p-tolyl)-1H-pyrazol-5-yl)urea]	474
3	CC(=O)NCc1cnc(Nc2cc(COc3ccc(NC(=O)Nc4cc(C(C)(C)C)nn4-c4ccc(C)cc4)c4ccccc34)ccn2)cn1 [Example 6, N-((5-((4-(((4-(3-(3-(tert-butyl)-1-(p-tolyl)-1H-pyrazol-5-yl)ureido)naphthalen-1-yl)oxy)methyl)pyridin-2-yl)amino)pyrazin-2-yl)methyl)acetamide]	52.4
15	CNC(=O)c1cnc(Nc2cc(COc3ccc(NC(=O)Nc4cc(C(C)(C)C)nn4-c4ccc(C)cc4)c4ccccc34)ccn2)cn1 [Example 7, 5-((4-(((4-(3-(3-(tert-Butyl)-1-(p-tolyl)-1H-pyrazol-5-yl)ureido)naphthalen-1-yl)oxy)methyl)pyridin-2-yl)amino)-N-methylpyrazine-2-carboxamide]	> 1520
1	Cc1ccc(-n2nc(C(C)(C)C)cc2NC(=O)Nc2ccc(OCc3ccnc(Nc4cncc(CC(=O)N(C)C)n4)c3)c3ccccc23)cc1 [Example 8, 2-(6-((4-(((4-(3-(3-(tert-butyl)-1-(p-tolyl)-1H-pyrazol-5-yl)ureido)naphthalen-1-yl)oxy)methyl)pyridin-2-yl)amino)pyrazin-2-yl)-N,N-dimethylacetamide]	31.5
134	Cc1ccc(-n2nc(C(C)(C)C)cc2NC(=O)Nc2ccc(OCc3ccnc(Nc4cnc(C(=O)N(C)C)cn4)c3)c3ccccc23)cc1 [Example 9, 5-((4-(((4-(3-(3-(tert-Butyl)-1-(p-tolyl)-1H-pyrazol-5-yl)ureido)naphthalen-1-yl)oxy)methyl)pyridin-2-yl)amino)-N,N-dimethylpyrazine-2-carboxamide]	72.5
8	Cc1ccc(-n2nc(C(C)(C)C)cc2NC(=O)Nc2ccc(OCc3ccnc(Nc4cnc(CO)cn4)c3)c3ccccc23)cc1 [Example 10, 1-(3-(tert-Butyl)-1-(p-tolyl)-1H-pyrazol-5-yl)-3-(4-((2-((5-(hydroxymethyl)pyrazin-2-yl)amino)pyridin-4-yl)methoxy)naphthalen-1-yl)urea]	32.5
52	Cc1ccc(-n2nc(C(C)(C)C)cc2NC(=O)Nc2ccc(OCc3ccnc(Nc4cncc(C#N)n4)c3)c3ccccc23)cc1 [Example 11]	> 1600
14	COc1ccc(-n2nc(C(C)(C)C)cc2NC(=O)Nc2ccc(OCc3ccnc(Nc4cnccn4)c3)c3ccccc23)cn1 [Example 12]	242
9	Cc1ccc(-n2nc(C(C)(C)C)cc2NC(=O)Nc2ccc(OCc3ccnc(Nc4cnccn4)c3)c3ccccc23)s1 [Example 13]	556
12	Cc1ccc(-n2nc(C(C)(C)C)cc2NC(=O)Nc2ccc(OCc3ccnc(Nc4cncc(N(C)C)n4)c3)c3ccccc23)cc1 [Example 14]	64.3
96	Cc1ccc(-n2nc(C(C)(C)C)cc2NC(=O)Nc2ccc(OCc3ccnc(Nc4cncc(C5CC5)n4)c3)c3ccccc23)cc1 [Example 15]	15.7
87	Cc1ccc(-n2nc(C(C)(C)C)cc2NC(=O)Nc2ccc(OCc3ccnc(Nc4cnc(C5CC5)cn4)c3)c3ccccc23)cc1 [Example 16]	> 1560
8	Cc1ccc(-n2nc(C(C)(C)C)cc2NC(=O)Nc2ccc(OCc3ccnc(Nc4cnc(C(=O)NCCN5CCOCC5)cn4)c3)c3ccccc23)cc1 [Example 17]	433
13	COc1cncc(Nc2cc(COc3ccc(NC(=O)Nc4cc(C(C)(C)C)nn4-c4ccc(C)cc4)c4ccccc34)ccn2)n1 [Example 18]	97.8
13	Cc1ccc(-n2nc(C(C)(C)C)cc2NC(=O)Nc2ccc(OCc3ccnc(Nc4cnc(C)cn4)c3)c3ccccc23)cc1 [Example 19]	340

IC50 [2] [nM]	SMILES	IC50 [1] [nM]
15	Cc1ccc(-n2nc(C(C)(C)C)cc2NC(=O)Nc2ccc(OCc3ccnc(Nc4cncc(C)n4)c3)c3ccccc23)cc1 [Example 20]	152
5	Cc1ccc(-n2nc(C(C)(C)C)cc2NC(=O)Nc2ccc(OCc3ccnc(Nc4cncc(CO)n4)c3)c3ccccc23)cc1 [Example 21]	76.5
22	COc1ccc(-n2nc(C(C)(C)C)cc2NC(=O)Nc2ccc(OCc3ccnc(Nc4cncc(C5CC5)n4)c3)c3ccccc23)cc1 [Example 22]	19.6
4	COc1ccc(-n2nc(C(C)(C)C)cc2NC(=O)Nc2ccc(OCc3ccnc(Nc4cnc(CO)cn4)c3)c3ccccc23)cc1 [Example 23]	33.5
38	Cc1ccc(-n2nc(C(C)(C)C)cc2NC(=O)Nc2ccc(OCc3ccnc(Nc4cncc(C5CC5)n4)c3)c3ccccc23)s1 [Example 24]	55.1
7	CC(C)(C)c1cc(NC(=O)Nc2ccc(OCc3ccnc(Nc4cncc(C5CC5)n4)c3)c3ccccc23)n(-c2ccc(CO)cc2)n1 [Example 25]	13.1
7	Cc1ccc(-n2nc(C(C)(C)C)cc2NC(=O)Nc2ccc(OCc3ccnc(Nc4cnc(CO)cn4)c3)c3ccccc23)s1 [Example 26]	973
17	Cc1cc(-n2nc(C(C)(C)C)cc2NC(=O)Nc2ccc(OCc3ccnc(Nc4cncc(C5CC5)n4)c3)c3ccccc23)cs1 [Example 27]	71.2
5	CNC(=O)Cc1cncc(Nc2cc(COc3ccc(NC(=O)Nc4cc(C(C)(C)C)nn4-c4ccc(C)cc4)c4ccccc34)ccn2)n1 [Example 28]	75.5
5	Cc1ccc(-n2nc(C(C)(C)C)cc2NC(=O)Nc2ccc(OCc3ccnc(Nc4cnc(CC(=O)N(C)C)cn4)c3)c3ccccc23)cc1 [Example 29]	43
2	Cc1ccc(-n2nc(C(C)(C)C)cc2NC(=O)Nc2ccc(OCc3ccnc(Nc4cnc(CC(N)=O)cn4)c3)c3ccccc23)cc1 [Example 30]	115
3	Cc1ccc(-n2nc(C(C)(C)C)cc2NC(=O)Nc2ccc(OCc3ccnc(Nc4cncc(CC(N)=O)n4)c3)c3ccccc23)cc1 [Example 32]	65.6
3	CNC(=O)Cc1cnc(Nc2cc(COc3ccc(NC(=O)Nc4cc(C(C)(C)C)nn4-c4ccc(C)cc4)c4ccccc34)ccn2)cn1 [Example 33]	150
13	CC(C)(C)c1cc(NC(=O)Nc2ccc(OCc3ccnc(Nc4cncc(C5CC5)n4)c3)c3ccccc23)n(-c2ccc(O)cc2)n1 [Example 34]	41.1
9	Cc1ccc(-n2nc(C(C)(C)C)cc2NC(=O)Nc2ccc(OCc3ccnc(Nc4cnc(C(=O)N5CCOCC5)cn4)c3)c3ccccc23)cc1 [Example 35]	113
19	Cc1ccc(-n2nc(C(C)(C)C)cc2NC(=O)Nc2ccc(OCc3ccnc(Nc4cnc(C(=O)N5CCCC5)cn4)c3)c3ccccc23)cc1 [Example 36]	188
24	CCc1cnc(Nc2cc(COc3ccc(NC(=O)Nc4cc(C(C)(C)C)nn4-c4ccc(C)cc4)c4ccccc34)ccn2)cn1 [Example 37]	611
14	COc1ccc(-n2nc(C(C)(C)C)cc2NC(=O)Nc2ccc(OCc3ccnc(Nc4cnccn4)c3)c3ccccc23)cc1 [Example 38]	75.5
